Test results taken from patent US20230141101A1, “PDE4 INHIBITOR COMPOUND AND MEDICAL USE THEREOF” (Suzhou Longbotai Pharmaceuticals Co., Ltd., priority 2020, published 2023).

How the values were obtained:
Format in all cases: biochemical
Conditions in all cases: 20 nM
[1] = target: T1, PDE4B1 (Homo sapiens, UniProt Q07343); assay: PDE4 inhibitory activity assay (FAM-cAMP enzymatic reaction), PDE4B1
T1 construct: purchased BPS 60041
Method in brief: (§1)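 Each isoform is incubated with test compound for 15 min at room temperature before FAM-cAMP substrate starts a 30-min reaction.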

[2] = target: PDE4D2 (Homo sapiens, UniProt Q08499); assay: PDE4 inhibitory activity assay (FAM-cAMP enzymatic reaction), PDE4D2
Chain of PDE4D2 (Q08499 303-809): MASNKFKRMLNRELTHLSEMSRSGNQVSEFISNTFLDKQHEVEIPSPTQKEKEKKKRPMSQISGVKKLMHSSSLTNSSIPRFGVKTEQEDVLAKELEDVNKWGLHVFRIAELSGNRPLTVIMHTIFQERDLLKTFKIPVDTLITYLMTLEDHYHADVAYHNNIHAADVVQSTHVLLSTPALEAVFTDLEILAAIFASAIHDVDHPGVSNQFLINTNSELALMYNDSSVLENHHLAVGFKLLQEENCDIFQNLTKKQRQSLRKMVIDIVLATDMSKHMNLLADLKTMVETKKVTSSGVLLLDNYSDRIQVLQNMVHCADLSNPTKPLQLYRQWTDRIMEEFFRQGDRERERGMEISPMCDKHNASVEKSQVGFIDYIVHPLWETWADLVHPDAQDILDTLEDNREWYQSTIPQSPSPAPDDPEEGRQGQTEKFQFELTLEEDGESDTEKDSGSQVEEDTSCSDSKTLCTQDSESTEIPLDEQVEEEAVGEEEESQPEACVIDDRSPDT
Method in brief: as §1

[3] = target: T2, PDE4A1A (Homo sapiens, UniProt P27815); assay: PDE4 inhibitory activity assay (FAM-cAMP enzymatic reaction), PDE4A1A
T2 construct: purchased BPS 60040
T2 sequence (P27815 1-647 isoform P27815-4): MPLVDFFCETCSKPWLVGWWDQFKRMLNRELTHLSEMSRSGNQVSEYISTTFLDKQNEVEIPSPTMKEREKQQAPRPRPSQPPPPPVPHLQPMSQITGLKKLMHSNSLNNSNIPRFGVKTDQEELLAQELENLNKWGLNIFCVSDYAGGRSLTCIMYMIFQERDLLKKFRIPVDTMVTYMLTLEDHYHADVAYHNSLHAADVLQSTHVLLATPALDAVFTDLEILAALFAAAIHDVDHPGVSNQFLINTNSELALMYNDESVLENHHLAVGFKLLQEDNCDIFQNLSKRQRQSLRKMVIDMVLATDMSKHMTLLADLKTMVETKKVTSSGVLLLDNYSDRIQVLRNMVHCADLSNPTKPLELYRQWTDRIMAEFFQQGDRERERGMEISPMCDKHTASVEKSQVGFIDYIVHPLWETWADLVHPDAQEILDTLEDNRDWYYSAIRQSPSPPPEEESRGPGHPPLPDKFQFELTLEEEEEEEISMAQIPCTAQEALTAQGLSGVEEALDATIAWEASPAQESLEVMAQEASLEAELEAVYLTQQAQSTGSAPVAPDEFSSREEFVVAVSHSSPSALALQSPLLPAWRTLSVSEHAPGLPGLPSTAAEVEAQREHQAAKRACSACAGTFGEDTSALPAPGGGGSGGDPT
Method in brief: as §1

T1 sequence (Q07343 whole entry): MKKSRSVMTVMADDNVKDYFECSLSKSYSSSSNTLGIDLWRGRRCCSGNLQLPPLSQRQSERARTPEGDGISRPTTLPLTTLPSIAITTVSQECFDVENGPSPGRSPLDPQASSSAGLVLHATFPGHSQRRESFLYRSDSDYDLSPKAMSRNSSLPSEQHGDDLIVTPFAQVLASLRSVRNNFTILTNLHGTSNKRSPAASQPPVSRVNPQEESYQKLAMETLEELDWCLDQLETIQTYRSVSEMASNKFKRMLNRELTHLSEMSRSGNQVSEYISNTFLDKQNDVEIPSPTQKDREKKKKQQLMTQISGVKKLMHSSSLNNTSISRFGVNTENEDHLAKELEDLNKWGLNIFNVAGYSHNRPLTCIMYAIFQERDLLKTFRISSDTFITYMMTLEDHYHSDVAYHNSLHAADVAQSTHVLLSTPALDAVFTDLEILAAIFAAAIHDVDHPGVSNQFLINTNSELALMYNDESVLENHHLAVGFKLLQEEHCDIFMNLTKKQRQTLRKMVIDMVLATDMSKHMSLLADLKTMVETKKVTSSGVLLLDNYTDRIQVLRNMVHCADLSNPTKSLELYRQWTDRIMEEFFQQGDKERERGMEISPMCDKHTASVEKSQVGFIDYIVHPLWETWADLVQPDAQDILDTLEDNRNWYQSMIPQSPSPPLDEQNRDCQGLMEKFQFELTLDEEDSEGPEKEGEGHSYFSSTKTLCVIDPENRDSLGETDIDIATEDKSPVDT

CCOc1nc([C@@H](CS(C)(=O)=O)n2c(=O)n(C)c3c(C)c(-c4ccc(F)cc4)cnc32)ccc1OC(F)F [Ex. 67, (S)-3-(1-(5-(difluoromethoxy)-6-ethoxypyridin-2-yl)-2-(methylsulfonyl)ethyl)-6-(4-fluorophenyl)-1,7-dimethyl-1H-imidazo[4,5-b]pyridin-2(3H)-one]
+: PDE4 B1 inhibitory effect at 20 nM [1] | PDE4 D2 inhibitory effect at 20 nM [2] | PDE4 A1 inhibitory effect at 20 nM [3]

CCOc1nc([C@@H](CS(C)(=O)=O)n2c(=O)n(C)c3c(C)c(-c4ccccc4C)cnc32)ccc1OC(F)F [Ex. 68, (S)-3-(1-(5-(difluoromethoxy)-6-ethoxypyridin-2-yl)-2-(methylsulfonyl)ethyl)-1,7-dimethyl-6-(o-methylphenyl)-1H-imidazo[4,5-b]pyridin-2(3H)-one]
+: PDE4 B1 inhibitory effect at 20 nM [1] | PDE4 D2 inhibitory effect at 20 nM [2] | PDE4 A1 inhibitory effect at 20 nM [3]

CCOc1nc([C@@H](CS(C)(=O)=O)n2c(=O)n(CC(F)F)c3c(C)c(-c4ccccc4F)cnc32)ccc1OC(C)C [Ex. 69, (S)-1-(2,2-difluoroethyl)-3-(1-(6-ethoxy-5-isopropoxypyridin-2-yl)-2-(methylsulfonyl)ethyl)-6-(2-fluorophenyl)-7-methyl-1H-imidazo[4,5-b]pyridin-2(3H)-one]
+: PDE4 B1 inhibitory effect at 20 nM [1] | PDE4 D2 inhibitory effect at 20 nM [2] | PDE4 A1 inhibitory effect at 20 nM [3]

CCOc1nc([C@@H](CS(C)(=O)=O)n2c(=O)n(CC(F)F)c3c(C)c(-c4ccccc4)cnc32)ccc1OC(C)C [Ex. 70, (S)-1-(2,2-difluoroethyl)-3-(1-(6-ethoxy-5-isopropoxypyridin-2-yl)-2-(methylsulfonyl)ethyl)-7-methyl-6-phenyl-1H-imidazo[4,5-b]pyridin-2(3H)-one]
+: PDE4 B1 inhibitory effect at 20 nM [1] | PDE4 D2 inhibitory effect at 20 nM [2] | PDE4 A1 inhibitory effect at 20 nM [3]

CCOc1nc([C@@H](CS(C)(=O)=O)n2c(=O)n(CC(F)F)c3c(C)c(-c4ccc(F)cc4)cnc32)ccc1OC(C)C [Ex. 71, (S)-1-(2,2-difluoroethyl)-3-(1-(6-ethoxy-5-isopropoxypyridin-2-yl)-2-(methylsulfonyl)ethyl)-6-(4-fluorophenyl)-7-methyl-1H-imidazo[4,5-b]pyridin-2(3H)-one]
+: PDE4 B1 inhibitory effect at 20 nM [1] | PDE4 D2 inhibitory effect at 20 nM [2] | PDE4 A1 inhibitory effect at 20 nM [3]

CCOc1nc([C@@H](CS(C)(=O)=O)n2c(=O)n(CC(F)F)c3c(C)c(-c4ccccc4C)cnc32)ccc1OC(C)C [Ex. 72, (S)-1-(2,2-difluoroethyl)-3-(1-(6-ethoxy-5-isopropoxypyridin-2-yl)-2-(methylsulfonyl)ethyl)-7-methyl-6-(o-methylphenyl)-1H-imidazo[4,5-b]pyridin-2(3H)-one]
+: PDE4 B1 inhibitory effect at 20 nM [1] | PDE4 D2 inhibitory effect at 20 nM [2] | PDE4 A1 inhibitory effect at 20 nM [3]

CCOc1nc([C@@H](CS(C)(=O)=O)n2c(=O)[nH]c3c(C)c(Br)cnc32)ccc1OC [Ex. 73, (S)-3-(1-(6-ethoxy-5-methoxypyridin-2-yl)-2-(methylsulfonyl)ethyl)-6-bromo-7-methyl-1H-imidazo[4,5-b]pyridin-2(3H)-one]
+: PDE4 B1 inhibitory effect at 20 nM [1] | PDE4 D2 inhibitory effect at 20 nM [2] | PDE4 A1 inhibitory effect at 20 nM [3]

CCOc1nc([C@@H](CS(C)(=O)=O)n2c(=O)[nH]c3cc(-c4ccccc4F)cnc32)ccc1OC [Ex. 74, (S)-3-(1-(6-ethoxy-5-methoxypyridin-2-yl)-2-(methylsulfonyl)ethyl)-6-(2-fluorophenyl)-1H-imidazo[4,5-b]pyridin-2(3H)-one]
+: PDE4 B1 inhibitory effect at 20 nM [1] | PDE4 D2 inhibitory effect at 20 nM [2] | PDE4 A1 inhibitory effect at 20 nM [3]

CCOc1nc([C@@H](CS(C)(=O)=O)n2c(=O)[nH]c3cc(-c4ccccc4)cnc32)ccc1OC [Ex. 76, (S)-3-(1-(6-ethoxy-5-methoxypyridin-2-yl)-2-(methylsulfonyl)ethyl)-6-phenyl-1H-imidazo[4,5-b]pyridin-2(3H)-one]
+: PDE4 B1 inhibitory effect at 20 nM [1] | PDE4 D2 inhibitory effect at 20 nM [2] | PDE4 A1 inhibitory effect at 20 nM [3]

CCOc1nc([C@@H](CS(C)(=O)=O)n2c(=O)n(C)c3cc(-c4ccccc4)cnc32)ccc1OC [Ex. 77, (S)-3-(1-(6-ethoxy-5-methoxypyridin-2-yl)-2-(methylsulfonyl)ethyl)-6-phenyl-1-methyl-1H-imidazo[4,5-b]pyridin-2(3H)-one]
+: PDE4 B1 inhibitory effect at 20 nM [1] | PDE4 D2 inhibitory effect at 20 nM [2] | PDE4 A1 inhibitory effect at 20 nM [3]

CCOc1nc([C@@H](CS(C)(=O)=O)n2c(=O)[nH]c3cc(-c4ccc(F)cc4)cnc32)ccc1OC [Ex. 78, (S)-3-(1-(6-ethoxy-5-methoxypyridin-2-yl)-2-(methylsulfonyl)ethyl)-6-(4-fluorophenyl)-1H-imidazo[4,5-b]pyridin-2(3H)-one]
+: PDE4 B1 inhibitory effect at 20 nM [1] | PDE4 D2 inhibitory effect at 20 nM [2] | PDE4 A1 inhibitory effect at 20 nM [3]

CCOc1nc([C@@H](CS(C)(=O)=O)n2c(=O)[nH]c3cc(-c4ccccc4CC)cnc32)ccc1OC [Ex. 81, (S)-3-(1-(6-ethoxy-5-methoxypyridin-2-yl)-2-(methylsulfonyl)ethyl)-6-(2-ethylphenyl)-1H-imidazo[4,5-b]pyridin-2(3H)-one]
+: PDE4 B1 inhibitory effect at 20 nM [1] | PDE4 D2 inhibitory effect at 20 nM [2] | PDE4 A1 inhibitory effect at 20 nM [3]

CCOc1nc([C@@H](CS(C)(=O)=O)n2c(=O)n(C)c3cc(-c4ccccc4CC)cnc32)ccc1OC [Ex. 82, (S)-3-(1-(6-ethoxy-5-methoxypyridin-2-yl)-2-(methylsulfonyl)ethyl)-6-(2-ethylphenyl)-1-methyl-1H-imidazo[4,5-b]pyridin-2(3H)-one]
+: PDE4 B1 inhibitory effect at 20 nM [1] | PDE4 D2 inhibitory effect at 20 nM [2] | PDE4 A1 inhibitory effect at 20 nM [3]

CCOc1nc([C@@H](CS(C)(=O)=O)n2c(=O)[nH]c3cc(-c4ccccc4OC)cnc32)ccc1OC [Ex. 83, (S)-3-(1-(6-ethoxy-5-methoxypyridin-2-yl)-2-(methylsulfonyl)ethyl)-6-(2-methoxyphenyl)-1H-imidazo[4,5-b]pyridin-2(3H)-one]
+: PDE4 B1 inhibitory effect at 20 nM [1] | PDE4 D2 inhibitory effect at 20 nM [2] | PDE4 A1 inhibitory effect at 20 nM [3]

CCOc1nc([C@@H](CS(C)(=O)=O)n2c(=O)n(C)c3cc(-c4ccccc4OC)cnc32)ccc1OC [Ex. 84, (S)-3-(1-(6-ethoxy-5-methoxypyridin-2-yl)-2-(methylsulfonyl)ethyl)-6-(2-methoxyphenyl)-1-methyl-1H-imidazo[4,5-b]pyridin-2(3H)-one]
+: PDE4 B1 inhibitory effect at 20 nM [1] | PDE4 D2 inhibitory effect at 20 nM [2] | PDE4 A1 inhibitory effect at 20 nM [3]
